One data set concerns the target Stat3 (Homo sapiens, UniProt P40763). The following applies: read-out: DB50 (concentration of peptide at which DNA-binding activity is inhibited by 50%); cited from earlier work.
For data set [1], the system named is TNF-induced PMN-EC adhesion. Conditions: cited from earlier work.
The next data set deals with PKC. The following applies: cited from earlier work.
The next data set deals with PI3K. Conditions: cited from earlier work.
The subject of a further data set is LDH % release. Conditions: cited from earlier work.
The next data set deals with proliferation. Conditions: cited from earlier work.
Data set [2] concerns TNF-induced inhibition of DNA synthesis. The following applies: cited from earlier work.
Data set [3] deals with whole blood samples. Put plainly: 18S DNA duplex real time PCR assay, increase of DNA in plasma of stored blood, example 5. The class given is cell-based, human. Conditions: 20 μM caspase inhibitor in whole blood; storage at RT. On the technique in general: In qPCR the cycle at which signal appears reflects the starting amount.
The conditions of data set [4]: in DMSO (highest concentration listed in the cell); cited from earlier work.
The subject of data set [5] is whole blood samples. Put plainly: DNA size distribution by chip gel electrophoresis (blood cell stability/DNA release). The format is cell-based, human. The following applies: 20 μM in 10 ml K2E blood; day 3 and day 7. The procedure: To separate the blood plasma from the whole blood, the blood samples were centrifuged for 15 min at 5000 rpm, and the obtained plasma samples were again centrifuged for 10 min at 16.000×g at 4° C.
The circulating, extracellular nucleic acids were purified from the obtained plasma samples using the QIAamp® Circulating NA Kit (QIAGEN, according to the handbook). In brief: • 10 ml sample input; • lysis: 1 ml Proteinase K and 8 ml Buffer ACL (QIAGEN) • binding: 18 ml Buffer ACB (QIAGEN) • wash-steps: unchanged and according to handbook • elution in 60 μl Buffer AVE (QIAGEN)
1.3.1 Measurement of the blood cell stability/DNA release by the determination of DNA size distribution using a chip gel electrophoresis (2100 Bioanalyzer; Agilent Technologies; Inc., USA) according to manufacturer's instruction (see handbook Agilent DNA 7500 and DNA 12000 Kit Guide), but 1.5 μl instead of 1 μl sample were transferred to the wells.
Each tested caspase inhibitor was added to whole blood samples (20 μM end concentration in 10 ml blood; blood was collected into Vacutainer K2E Tubes; BD). The whole blood sample was processed as described in section 1 (plasma preparation and nucleic acid isolation).
The eluted circulating cell-free DNA was separated by size using chip gel electrophoresis (for details on the method see above). […]

Data set [6] concerns etoposide-induced cortical neuron death. Conditions: cited from earlier work.
The conditions of data set [7]: in neuron culture medium at 37° C.; cited from earlier work.

Here are results for four compounds from US20160281133A1, “STABILIZATION AND ISOLATION OF EXTRACELLULAR NUCLEIC ACIDS” (QIAGEN GMBH, priority 2013, published 2016).

Where a SMILES comes first, the peptide text is derived from it. The star is where a group is joined. Cbz = O=C(OCc1ccccc1)*; CH2F = FC*

Stat3, sequence (P40763 whole entry, species assumed): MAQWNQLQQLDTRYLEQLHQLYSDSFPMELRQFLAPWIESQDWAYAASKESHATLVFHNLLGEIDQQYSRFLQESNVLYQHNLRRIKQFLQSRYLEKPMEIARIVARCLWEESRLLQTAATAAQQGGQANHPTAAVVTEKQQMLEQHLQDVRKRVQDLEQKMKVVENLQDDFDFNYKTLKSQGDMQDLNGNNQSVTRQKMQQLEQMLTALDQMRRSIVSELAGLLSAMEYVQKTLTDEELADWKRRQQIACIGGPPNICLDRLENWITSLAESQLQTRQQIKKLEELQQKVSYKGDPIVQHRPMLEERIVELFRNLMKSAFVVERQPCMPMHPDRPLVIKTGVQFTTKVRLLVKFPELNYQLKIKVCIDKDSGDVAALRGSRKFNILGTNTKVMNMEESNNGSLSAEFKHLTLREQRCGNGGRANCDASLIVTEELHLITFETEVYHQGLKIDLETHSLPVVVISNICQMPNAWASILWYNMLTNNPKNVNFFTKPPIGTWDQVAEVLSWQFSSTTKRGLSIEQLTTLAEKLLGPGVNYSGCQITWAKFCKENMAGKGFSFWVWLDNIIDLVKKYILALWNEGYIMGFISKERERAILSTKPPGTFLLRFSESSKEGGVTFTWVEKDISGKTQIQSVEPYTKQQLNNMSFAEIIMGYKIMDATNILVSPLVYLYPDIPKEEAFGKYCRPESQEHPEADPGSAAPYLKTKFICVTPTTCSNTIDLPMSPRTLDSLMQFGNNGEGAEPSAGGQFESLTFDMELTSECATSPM

As to “Ac-Pro-Tyr(PO3H2)-Leu-Lys-Thr-Lys-OH (PYLKTK; HELM PEPTIDE1{[ac].P.[O=C([C@H](Cc1ccc(OP(=O)(O)O)cc1)N[*:1])[*:2]].L.K.T.K}$$$$V2.0; SMILES CC(=O)N1CCC[C@H]1C(=O)N[C@@H](Cc1ccc(OP(=O)(O)O)cc1)C(=O)N[C@@H](CC(C)C)C(=O)N[C@@H](CCCCN)C(=O)N[C@H](C(=O)N[C@@H](CCCCN)C(=O)O)[C@@H](C)O) [STAT3 Inhibitor Peptide]”, in the data set with Stat3, the IC50 is 235 µM.
For the compound `O=c1c(O)c(-c2ccc(O)c(O)c2)oc2cc(O)cc(O)c12` [Quercetin(Sophoretin), Quercetin], the IC50 is 16.7 µM in data set [1]; 15 μg/ml. It strongly abrogated PI3K and Src kinases, mildly with PKC; 3.8 µM with PI3K; 0.8 µM with LDH % release; 11.4 µM in the data set on proliferation; 6.1 µM in [2].
As for `COC(=O)C[C@H](NC(=O)[C@H](C)NC(=O)[C@@H](NC(=O)OCc1ccccc1)C(C)C)C(=O)CF` [Z-Val-Ala-Asp(OMe)-FMK] (Cbz-Val-Ala-Asp(OMe)-CH2F), the “increase of DNA from day 0 to day 3 or 7” value with whole blood samples [3] was “more prominent on day 7”. The solubility in data set [4] is on record as 20 mM, add 107 μl DMSO 10 mM, add 214 μl DMSO 5 mM, add 428 μl DMSO. The “ladder-like pattern of bands (release and fragmentation of genomic DNA) compared to controls” value in the data set with whole blood samples [5] was “reduced ladder-like pattern”.
With `O=[N+]([O-])c1ccc(-c2cn3c4c(sc3n2)CCCC4)cc1` [Pifithrin-α, p-Nitro, Cyclic], in data set [6], the “higher potency than Pifithrin-α” value is “A cell-permeable p53 inhibitor that exhibits 10-fold higher potency”. Besides, in data set [7], the “longer half-life than Pifithrin-α” value is reported as 50% and the t½ is 6 h.

As a reminder, the t½ is the time in which the quantity being followed falls by half.
